# From patent publication US7205127B2 (priority 2002, dated 2007)
# Tests used:
# differentiated L6 cells = assay: 2-deoxy-glucose transport (glucose uptake) assay in differentiated L6 myotubes; assay type: cell-based, rat
# Description: Rat skeletal muscle L6-K cells were grown in minimal essential medium (α-MEM Glutamax I) containing 10% fetal bovine serum at 37° C., 5% CO2. The cells were passaged twice weekly by treatment with trypsin-EDTA and transfer of ⅓ of the cells to new flasks with fresh culture medium. For differentiation into myotubes, 30,000 cells were seeded in 1 ml in 24-well plates. When the cells were confluent, usually after 3 days, the medium was replaced by differentiation medium consisting of α-MEM, 2% fetal bovine serum and penicillin/streptomycin at a concentration of 100 U/ml and 100 μg/ml, respectively. The medium was replaced every 2–3 days. Between days 4–7, differentiation medium containing 1 mM cytidine was used. The cells were differentiated for 8–10 days before being used in experiments.
# On the day before the glucose transport assay, the wells of the culture plate were emptied and 1 ml serum free DMEM containing 5 mM glucose and penicillin/streptomycin was added. In some experiments the cells were treated over night with test compounds in 1 ml and additional treatments were added the next day to give a total volume of 2 ml. In these experiments, insulin (100–1000 nM) was added in 0.2 ml. When all treatments were performed after 20–24 h in serum free medium, a total volume of 1 ml was used. The wells were emptied and 0.5 ml prewarmed PBS without Ca^2+/mg^2+ containing 1 μCi/ml radioactive 2-deoxy-glucose added. After 10 min at 37° C., the wells were emptied and washed three times with cold PBS. The cell monolayer was solubilized in 0.5 ml 0.5 M NaOH for 3 h at room temperature. 400 μl was mixed with 8 ml scintillation fluid (Optiphase, Wallac) and counted in a scintillation counter (Packard TriCarb). Two 10-μl aliquots were used for determination of protein concentration using the method according to Bradford (Anal. Biochem., 1976, 72:248–54) from BioRad.
# This effect is seen when cells are stimulated with 0.1–10 μM DPI for 1 h. A bell-shaped dose response curve for DPI with an optimum at 1 μM is recorded. The effect of suboptimal concentrations of DPI during a 1 h treatment could be stimulated further if insulin is added 30 min after DPI. However, insulin has little additional effect when the maximum effect of DPI is reached in the 1 h protocol (FIG. 1). The effective concentrations at which DPI stimulates glucose transport corresponds well to the concentrations inhibiting NAD(P)H oxidase activity in cell free systems [O'Donnell et al., Biochemical Journal, 290:41–9 (1993)]. […] On the basis of the above results it is postulated that DPI enhances a constitutive activity of the insulin receptor and/or the intracellular insulin-signaling pathway.
# Assuming that the enhancing effect of DPI on insulin signaling was due to inhibition of ROS production, it was investigated whether an exogenous source of H2O2 could counteract the effect of DPI. To this end, L6 cells were treated with 25 mU/ml of glucose oxidase for 30 min before addition of DPI.
# C57BL/6J ob/ob mice = conditions: 1 mg/kg i.p. once daily for 4 days
# Description: Studies were conducted in vivo, in an animal model of obesity characterized by insulin resistance. Eight-month old C57BL/6J ob/ob mice (M&B A/S, Denmark) were matched for sex, weight and fasting blood glucose concentrations. The animals were injected intraperitoneally once daily with DPI (1 mg/kg) or water for 4 days. On day 5, the animals were fasted for 2.5 h and then given an i.p. injection of human insulin 0.5 U/kg (Actrapid, Novo Nordisk, Denmark) and their blood glucose levels were monitored for 4 h by sampling from the tail. The glucose concentration was determined using a Glucometer Accutrend Sensor (Roche).
# [1] = tested on: thioredoxin-gp91phox fusion protein; conditions: in the presence of NAD(P)H and FAD; cited from earlier work
# NAD(P)H oxidase = molecular target: T1, NAD(P)H oxidase (Homo sapiens, UniProt P19878); conditions: most likely via binding to p67phox; cited from earlier work
# T1 sequence (P19878 1-526): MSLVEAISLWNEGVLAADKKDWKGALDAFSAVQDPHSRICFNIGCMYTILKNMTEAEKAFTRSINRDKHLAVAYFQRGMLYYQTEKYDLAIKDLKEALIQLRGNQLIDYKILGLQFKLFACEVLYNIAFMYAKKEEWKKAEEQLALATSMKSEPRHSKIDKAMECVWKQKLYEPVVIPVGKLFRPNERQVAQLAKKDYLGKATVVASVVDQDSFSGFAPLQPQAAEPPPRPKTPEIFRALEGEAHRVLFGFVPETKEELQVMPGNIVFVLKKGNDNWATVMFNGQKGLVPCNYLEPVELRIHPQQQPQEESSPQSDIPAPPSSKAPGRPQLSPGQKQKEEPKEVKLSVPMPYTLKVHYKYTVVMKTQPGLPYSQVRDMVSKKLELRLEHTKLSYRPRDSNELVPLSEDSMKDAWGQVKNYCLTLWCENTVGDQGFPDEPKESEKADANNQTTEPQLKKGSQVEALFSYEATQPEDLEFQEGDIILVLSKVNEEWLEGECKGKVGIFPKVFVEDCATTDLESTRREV
compound,measurement,setting,value
"c1ccc2c(c1)[I+]c1ccccc1-2 [DPI, Diphenylene iodonium]",optimum of bell-shaped dose response curve for glucose uptake,differentiated L6 cells; 1 h treatment,1 µM
same,reduction of stimulatory effect on glucose transport by glucose oxidase,differentiated L6 cells; L6 cells treated with 25 mU/ml glucose oxidase for 30 min before addition of DPI (FIG. 2),68%
same,concentrations at which the increase in glucose uptake is seen,differentiated L6 cells; cells stimulated for 1 h,0.1 to 10 µM
same,glucose uptake,differentiated L6 cells; differentiated L6 cells incubated with DPI for 1 h (FIG. 1),significant increase
same,side effects of treatment,C57BL/6J ob/ob mice; ob/ob mice,Without any overt side effects
same,blood glucose levels versus control group,C57BL/6J ob/ob mice; 1–4 h after injection of insulin 0.5 U/kg (FIG. 3),significantly lower blood glucose levels
same,diaphorase activity of thioredoxin-gp91phox fusion protein,[1],inhibited
Mastoparan,NAD(P)H oxidase activation,NAD(P)H oxidase,inhibit NAD(P)H oxidase activation
"insulin: bovine insulin purchased from Sigma, used to stimulate glucose transport",reduction of insulin stimulated glucose transport by glucose oxidase,"differentiated L6 cells; L6 cells treated with 25 mU/ml glucose oxidase, 200 nM insulin (FIG. 2)",65%
